ChEMBL document CHEMBL1124701, “Some benzyl-substituted imidazoles, triazoles, tetrazoles, pyridinethiones, and structural relatives as multisubstrate inhibitors of dopamine beta-hydroxylase. 4. Structure-activity relationships at the copper binding site” (J Med Chem, 1990)

Each compound was assayed against T1, Dopamine beta-hydroxylase (Bos taurus, UniProt P15101) (assay: Inhibitory activity was determined against bovine dopamine beta-hydroxylase (DBH)).
T1 sequence (P15101 whole entry): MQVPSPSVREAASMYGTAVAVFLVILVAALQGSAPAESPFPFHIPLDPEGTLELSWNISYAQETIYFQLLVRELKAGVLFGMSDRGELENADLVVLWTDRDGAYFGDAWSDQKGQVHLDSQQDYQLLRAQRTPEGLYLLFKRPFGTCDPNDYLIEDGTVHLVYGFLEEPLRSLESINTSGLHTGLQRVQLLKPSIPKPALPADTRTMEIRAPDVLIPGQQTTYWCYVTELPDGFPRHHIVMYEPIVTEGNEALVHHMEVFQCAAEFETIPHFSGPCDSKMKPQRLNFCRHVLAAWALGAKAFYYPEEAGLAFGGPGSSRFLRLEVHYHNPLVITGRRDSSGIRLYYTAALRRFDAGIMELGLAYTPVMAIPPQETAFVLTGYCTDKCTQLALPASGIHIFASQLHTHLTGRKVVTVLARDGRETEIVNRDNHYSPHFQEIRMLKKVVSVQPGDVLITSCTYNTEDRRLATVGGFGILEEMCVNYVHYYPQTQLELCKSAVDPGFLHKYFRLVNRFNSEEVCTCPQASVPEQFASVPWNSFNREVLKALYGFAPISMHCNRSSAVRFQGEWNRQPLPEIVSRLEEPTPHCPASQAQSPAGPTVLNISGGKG
Compound `Sc1ncnn1Cc1ccccc1` has an IC50 of 75 µM.
Compound `O=C(O)c1nccn1Cc1ccc(O)cc1` has an IC50 of 112 µM.
For `Fc1cc(F)cc(Cc2cccnc2S)c1`, the IC50 was 13.4 µM.
Work on `Fc1cccc(Cn2ncnc2S)c1` yielded an IC50 of 15 µM.
For `CSc1nccn1CCCc1ccc(O)cc1`, the IC50 was 79 µM.
With `Sc1nnnn1Cc1ccccc1` the IC50 was 16 µM.
For `Fc1cccc(Cn2cnnc2S)c1`, the IC50 was 1.9 µM.
For `Fc1cc(F)cc(Cn2nnnc2S)c1`, the IC50 was 1.54 µM.
In the case of `O=C(O)c1nccn1Cc1ccccc1`, the IC50 is reported as 57 µM.
`Fc1cc(F)cc(CN2CCN=C2S)c1` gave an IC50 of 1.4 µM.
`Oc1c(F)cc(Cn2cnnc2S)cc1F` showed an IC50 of 0.035 µM.
`Fc1cccc(CN2CCNC2=S)c1` was tested, and the IC50 was 3.7 µM.
`Fc1cc(F)cc(Cn2cccnc2=S)c1` was tested, and the IC50 was 2.8 µM.
With `Fc1cc(F)cc(Cn2nc[nH]c2=S)c1` the IC50 was 6.2 µM.
Compound `NCc1nccn1Cc1ccc(O)cc1` has an IC50 of 165 µM.

What follows are compounds tested against T2, Dopamine beta-hydroxylase (Bos taurus) (UniProt P15101) (assay: Percent inhibition against bovine dopamine beta-hydroxylase (DBH) at 10e-4 M concentration).
T2 sequence (whole entry): T1 sequence (P15101 whole entry)
`O/N=C/c1nccn1Cc1ccccc1` gave an inhibition of 10%.
`O=C(O)Cc1nccn1Cc1ccc(O)cc1` gave an inhibition of 0%.
`Nc1nccn1Cc1ccc(O)cc1` showed an inhibition of 4%.
Work on `O=C(O)Cc1nccn1Cc1ccccc1` yielded an inhibition of 0%.
For `Oc1ccc(Cn2ccnc2)cc1`, the inhibition was 17%.
`OCc1nccn1Cc1ccccc1` was tested, and the inhibition was 0%.

What follows are compounds tested against T2, Dopamine beta-hydroxylase (Bos taurus) (assay: Percent inhibition against bovine dopamine beta-hydroxylase (DBH) at 10e-5 M concentration).
Compound `Fc1cccc(Cn2cccnc2=S)c1` has an inhibition of 15%.
`Fc1cccc(Cc2cccnc2S)c1` gave an inhibition of 34%.
`Sc1ncccc1Cc1ccccc1` was tested, and the inhibition was 26%.
`S=C1NCCN1Cc1ccccc1` was tested, and the inhibition was 5%.
Compound `S=c1ncccn1Cc1ccccc1` has an inhibition of 5%.
With `Sc1cnnn1Cc1ccccc1` the inhibition was 0%.
